Measurements from ChEMBL document CHEMBL1132130, “Synthesis of heterocyclic enol ethers and their use as group 2 metabotropic glutamate receptor antagonists” (Bioorg Med Chem Lett, 1999).
Active and inactive are the calls of the source. The calls are words filed in the database; no cut-off is given here.

Columns and labels:
[1] = target: T1, Metabotropic glutamate receptor 2 (Rattus norvegicus, UniProt P31421); test: Inhibition of 1S, 3R-ACPD (10 uM)-stimulated GTP gamma 35S binding on rat mGluR2 transfected cell membranes from CHO cells
T1 sequence (P31421 whole entry): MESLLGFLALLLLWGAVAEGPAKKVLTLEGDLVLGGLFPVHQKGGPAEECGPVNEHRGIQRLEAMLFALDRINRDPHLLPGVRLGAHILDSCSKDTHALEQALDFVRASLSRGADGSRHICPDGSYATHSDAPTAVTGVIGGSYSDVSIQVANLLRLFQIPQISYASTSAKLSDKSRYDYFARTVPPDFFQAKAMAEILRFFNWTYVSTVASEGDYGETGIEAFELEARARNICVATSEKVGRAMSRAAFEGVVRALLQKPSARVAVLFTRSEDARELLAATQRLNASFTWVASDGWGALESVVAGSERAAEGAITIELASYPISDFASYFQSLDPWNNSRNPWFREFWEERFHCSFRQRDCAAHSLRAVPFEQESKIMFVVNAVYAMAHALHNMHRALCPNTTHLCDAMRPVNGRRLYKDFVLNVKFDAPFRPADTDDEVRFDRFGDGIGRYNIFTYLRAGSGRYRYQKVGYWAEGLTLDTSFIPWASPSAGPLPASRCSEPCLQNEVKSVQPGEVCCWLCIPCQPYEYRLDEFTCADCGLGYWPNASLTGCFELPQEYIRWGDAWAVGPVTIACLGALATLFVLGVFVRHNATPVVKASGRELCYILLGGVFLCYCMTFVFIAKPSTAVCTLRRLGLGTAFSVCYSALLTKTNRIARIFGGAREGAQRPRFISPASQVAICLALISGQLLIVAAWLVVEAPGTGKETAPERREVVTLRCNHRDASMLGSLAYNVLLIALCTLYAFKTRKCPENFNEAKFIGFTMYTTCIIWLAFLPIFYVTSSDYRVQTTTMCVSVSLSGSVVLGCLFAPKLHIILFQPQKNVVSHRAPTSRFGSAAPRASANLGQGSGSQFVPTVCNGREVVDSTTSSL

[2] = target: Metabotropic glutamate receptor 4 (Rattus norvegicus) (UniProt P31423); test: Compound was tested for agonistic or antagonistic activity on rat mGluR4 using the GTP-gamma 35S binding model up to 100 uM; IA means devoid of activity
Sequence of Metabotropic glutamate receptor 4 (Rattus norvegicus) (P31423 whole entry): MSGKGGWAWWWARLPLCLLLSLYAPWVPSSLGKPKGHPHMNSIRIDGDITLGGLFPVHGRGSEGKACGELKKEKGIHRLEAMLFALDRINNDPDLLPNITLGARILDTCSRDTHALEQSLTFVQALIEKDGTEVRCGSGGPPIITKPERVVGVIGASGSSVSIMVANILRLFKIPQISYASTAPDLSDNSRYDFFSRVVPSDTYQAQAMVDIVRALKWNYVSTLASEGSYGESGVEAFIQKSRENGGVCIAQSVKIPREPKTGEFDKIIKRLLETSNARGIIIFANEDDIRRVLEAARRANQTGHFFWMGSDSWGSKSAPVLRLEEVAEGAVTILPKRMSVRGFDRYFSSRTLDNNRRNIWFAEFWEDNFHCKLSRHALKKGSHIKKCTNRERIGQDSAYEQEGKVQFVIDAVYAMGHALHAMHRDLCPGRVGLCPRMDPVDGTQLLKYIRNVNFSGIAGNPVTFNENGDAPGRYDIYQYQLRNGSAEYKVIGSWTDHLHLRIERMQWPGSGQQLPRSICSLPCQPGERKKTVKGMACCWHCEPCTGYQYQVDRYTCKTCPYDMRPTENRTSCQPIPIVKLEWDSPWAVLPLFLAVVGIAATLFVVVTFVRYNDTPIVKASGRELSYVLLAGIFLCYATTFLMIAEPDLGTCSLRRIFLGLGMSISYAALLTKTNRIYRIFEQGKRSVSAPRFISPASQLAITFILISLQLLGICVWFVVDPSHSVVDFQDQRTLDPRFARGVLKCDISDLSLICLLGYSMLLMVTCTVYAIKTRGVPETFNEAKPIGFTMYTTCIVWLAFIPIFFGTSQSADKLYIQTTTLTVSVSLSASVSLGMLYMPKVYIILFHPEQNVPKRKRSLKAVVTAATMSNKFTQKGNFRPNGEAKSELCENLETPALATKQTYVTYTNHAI

[3] = target: Glutamate receptor ionotropic, kainate (Rattus norvegicus) (UniProt P22756+Q01812+P42260+P42264+Q63273); test: Compound was tested for inhibition of binding of [3H]kainate to Ionotropic glutamate receptor kainate in rat brain membranes up to 100 uM; IA means inactive; assay type: cell membranes
[4] = target: Glutamate receptor ionotropic, NMDA 2C (Rattus norvegicus) (UniProt Q00961); test: Compound was tested for inhibition of binding of [3H]-MK 801 to NMDA receptor in rat brain membranes up to 100 uM; IA means inactive; assay type: cell membranes
Sequence of Glutamate receptor ionotropic, NMDA 2C (Rattus norvegicus) (Q00961 20-1237 limits assumed): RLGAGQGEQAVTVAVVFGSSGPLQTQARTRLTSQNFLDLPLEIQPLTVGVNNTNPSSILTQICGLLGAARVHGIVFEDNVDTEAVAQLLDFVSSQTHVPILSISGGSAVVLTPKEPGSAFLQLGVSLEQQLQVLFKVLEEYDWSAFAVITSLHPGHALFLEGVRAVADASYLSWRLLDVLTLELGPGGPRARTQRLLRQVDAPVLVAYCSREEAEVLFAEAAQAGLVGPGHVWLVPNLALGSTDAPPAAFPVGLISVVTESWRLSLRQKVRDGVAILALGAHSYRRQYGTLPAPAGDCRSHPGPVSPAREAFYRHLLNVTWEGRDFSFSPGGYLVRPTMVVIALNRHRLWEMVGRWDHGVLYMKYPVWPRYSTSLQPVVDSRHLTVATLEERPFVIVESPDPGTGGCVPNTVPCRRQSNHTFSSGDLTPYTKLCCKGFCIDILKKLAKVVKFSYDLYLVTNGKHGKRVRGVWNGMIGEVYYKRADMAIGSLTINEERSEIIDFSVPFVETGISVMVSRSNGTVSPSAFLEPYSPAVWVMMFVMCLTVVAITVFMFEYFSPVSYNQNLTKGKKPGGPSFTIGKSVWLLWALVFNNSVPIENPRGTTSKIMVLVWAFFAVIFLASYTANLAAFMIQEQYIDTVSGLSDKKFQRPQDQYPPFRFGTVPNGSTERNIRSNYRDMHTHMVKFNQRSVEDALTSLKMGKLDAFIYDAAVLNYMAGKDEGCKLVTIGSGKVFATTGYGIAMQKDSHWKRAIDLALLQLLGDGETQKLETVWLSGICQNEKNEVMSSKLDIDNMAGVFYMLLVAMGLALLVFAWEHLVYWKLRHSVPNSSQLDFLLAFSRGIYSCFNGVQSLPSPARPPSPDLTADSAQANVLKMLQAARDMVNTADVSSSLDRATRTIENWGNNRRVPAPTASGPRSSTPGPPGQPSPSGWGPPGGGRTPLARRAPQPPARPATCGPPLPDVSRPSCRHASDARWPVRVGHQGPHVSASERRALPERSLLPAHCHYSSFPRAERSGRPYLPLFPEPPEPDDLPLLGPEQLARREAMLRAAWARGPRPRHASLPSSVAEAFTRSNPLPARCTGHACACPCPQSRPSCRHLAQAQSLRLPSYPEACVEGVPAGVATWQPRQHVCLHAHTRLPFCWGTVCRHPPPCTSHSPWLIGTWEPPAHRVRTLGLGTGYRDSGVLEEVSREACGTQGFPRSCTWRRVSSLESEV

[5] = target: T1, Metabotropic glutamate receptor 2; test: Inhibition of 10 uM 1S, 3R-ACPD stimulated GTP gamma 35S binding to rat mGluR2 expressed in CHO cells; assay type: cell-based
[6] = target: Metabotropic glutamate receptor 1 (Rattus norvegicus) (UniProt P23385); test: Compound was tested for agonistic or antagonistic activity on rat mGluR1 using intracellular Ca 2+ measurement up to 100 uM; IA means devoid of activity; assay type: functional, cell-based
[7] = target: T1, Metabotropic glutamate receptor 2; test: Inhibition of [3H]-DCG IV binding on rat mGluR2 transfected cell membranes from CHO cells
[8] = target: Metabotropic glutamate receptor 5 (Rattus norvegicus) (UniProt P31424); test: Compound was tested for agonistic or antagonistic activity on rat mGluR5 using intracellular Ca 2+ measurement up to 100 uM; IA means devoid of activity; assay type: functional, cell-based
Sequence of Metabotropic glutamate receptor 5 (Rattus norvegicus) (P31424 21-1203 limits assumed): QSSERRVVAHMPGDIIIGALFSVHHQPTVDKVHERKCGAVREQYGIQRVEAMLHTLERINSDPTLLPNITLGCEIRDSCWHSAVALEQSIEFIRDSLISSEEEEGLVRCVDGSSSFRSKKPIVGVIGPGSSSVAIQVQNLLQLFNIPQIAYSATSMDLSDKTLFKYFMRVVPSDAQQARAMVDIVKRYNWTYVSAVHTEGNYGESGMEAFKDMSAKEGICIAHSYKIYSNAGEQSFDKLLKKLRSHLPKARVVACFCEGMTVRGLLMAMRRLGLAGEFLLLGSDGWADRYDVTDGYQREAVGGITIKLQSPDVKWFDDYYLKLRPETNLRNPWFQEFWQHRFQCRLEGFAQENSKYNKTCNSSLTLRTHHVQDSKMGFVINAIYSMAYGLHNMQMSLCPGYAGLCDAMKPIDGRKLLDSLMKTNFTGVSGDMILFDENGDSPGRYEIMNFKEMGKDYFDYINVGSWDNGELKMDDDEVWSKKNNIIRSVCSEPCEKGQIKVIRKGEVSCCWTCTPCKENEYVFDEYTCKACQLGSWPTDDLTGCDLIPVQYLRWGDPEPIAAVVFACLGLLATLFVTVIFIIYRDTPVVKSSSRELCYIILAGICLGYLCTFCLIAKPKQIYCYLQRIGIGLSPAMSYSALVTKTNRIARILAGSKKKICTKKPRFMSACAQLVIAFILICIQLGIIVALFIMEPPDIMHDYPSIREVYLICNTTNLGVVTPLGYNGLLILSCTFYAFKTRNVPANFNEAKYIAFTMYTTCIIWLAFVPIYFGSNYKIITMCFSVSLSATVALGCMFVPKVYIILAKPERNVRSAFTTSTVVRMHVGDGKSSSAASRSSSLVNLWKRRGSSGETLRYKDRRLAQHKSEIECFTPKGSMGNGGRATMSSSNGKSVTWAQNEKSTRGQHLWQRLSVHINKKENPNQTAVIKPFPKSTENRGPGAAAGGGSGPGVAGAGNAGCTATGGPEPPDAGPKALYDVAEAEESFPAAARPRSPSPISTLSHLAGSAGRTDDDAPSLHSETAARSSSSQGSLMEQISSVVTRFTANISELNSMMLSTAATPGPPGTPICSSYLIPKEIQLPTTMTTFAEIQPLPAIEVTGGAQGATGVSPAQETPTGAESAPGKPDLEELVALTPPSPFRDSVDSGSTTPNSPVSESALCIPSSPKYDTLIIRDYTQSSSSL

[9] = target: Glutamate receptor ionotropic, AMPA (Rattus norvegicus) (UniProt P19491+P19492+P19493+P19490); test: Compound was tested for inhibition of binding of [3H]-Ro- 48-8587 to Ionotropic glutamate receptor AMPA in rat brain membranes up to 100 uM; IA means inactive; assay type: cell membranes

IC50 [1]	Activity [2]	Activity [3]	Activity [4]	IC50 [5]	Activity [6]	IC50 [7]	Activity [8]	Activity [9]	SMILES
> 100 µM	–	–	–	–	–	–	–	–	COc1ccc(/C(=C/n2cncn2)OC(C)C)c(OC)c1
–	inactive	inactive	inactive	0.11 µM	inactive	0.5 µM	inactive	inactive	Clc1cccc(Cl)c1/C(=C/n1cncn1)OC1CCCCCC1
